# Results from patent US12540141B2, “Spiropyrrolidine derived antiviral agents” (priority 2020, dated 2026).
# Biological target: SARS-CoV-2 3CL-protease (Severe acute respiratory syndrome coronavirus 2, UniProt P0DTD1)
# Assay: SARS-CoV-2 3C-Like (3CL) Protease Fluorescence Assay (FRET)
# Type: biochemical
# Settings: SARS-CoV-2 3CL-protease 10 nM, 30 min preincubation at RT, substrate 40 μM
row,Structure (SMILES),IC50
1,CC(C)C[C@@H](C(=O)N1C[C@]2(C[C@H]1C#N)C(=O)Nc1ccccc12)N(C)C(=O)c1cccc(-c2ccc(C#N)cc2)c1 [Example 265],100 to 1000 nM
2,CC(C)C[C@@H](C(=O)N1C[C@]2(C[C@H]1C#N)C(=O)Nc1ccccc12)N(C)C(=O)c1cccc(-c2cccc(Cl)c2)c1 [Example 266],100 to 1000 nM
3,CC(C)C[C@@H](C(=O)N1C[C@]2(C[C@H]1C#N)C(=O)Nc1ccccc12)N(C)C(=O)c1cn(-c2ccccn2)nn1 [Example 267],< 100 nM
4,CC(C)C[C@@H](C(=O)N1C[C@]2(C[C@H]1C#N)C(=O)Nc1ccccc12)N(C)C(=O)c1cnc2c(C(F)(F)F)cccc2c1 [Example 268],100 to 1000 nM
5,CC(C)C[C@@H](C(=O)N1C[C@]2(C[C@H]1C#N)C(=O)Nc1ccccc12)N(C)C(=O)c1nc2c(F)cc(F)cc2[nH]1 [Example 269],< 100 nM
6,CC(C)C[C@@H](C(=O)N1C[C@]2(C[C@H]1C#N)C(=O)Nc1ccccc12)N(C)C(=O)c1nc2c(F)cc(F)c(F)c2[nH]1 [Example 270],< 100 nM
7,CC(C)C[C@@H](C(=O)N1C[C@]2(C[C@H]1C#N)C(=O)Nc1ccccc12)N(C)C(=O)c1ccc2c(Cl)ccnc2c1 [Example 271],100 to 1000 nM
8,CC(C)C[C@@H](C(=O)N1C[C@]2(C[C@H]1C#N)C(=O)Nc1ccccc12)N(C)C(=O)c1ccc(F)c(-c2ccccc2)c1 [Example 272],100 to 1000 nM
9,CC(C)C[C@@H](C(=O)N1C[C@]2(C[C@H]1C#N)C(=O)Nc1ccccc12)N(C)C(=O)c1nc2c(F)c(F)c(F)cc2[nH]1 [Example 273],100 to 1000 nM
10,CC(C)C[C@@H](C(=O)N1C[C@]2(C[C@H]1C#N)C(=O)Nc1ccccc12)N(C)C(=O)c1ccc2nccc(Br)c2c1 [Example 274],< 100 nM
11,CC(C)C[C@@H](C(=O)N1C[C@]2(C[C@H]1C#N)C(=O)Nc1ccccc12)N(C)C(=O)c1cc2cccnc2cc1F [Example 275],< 100 nM
12,CC(C)C[C@@H](C(=O)N1C[C@]2(C[C@H]1C#N)C(=O)Nc1ccccc12)N(C)C(=O)c1ccc2c(=O)[nH]ccc2c1 [Example 276],< 100 nM
13,CC(C)C[C@@H](C(=O)N1C[C@]2(C[C@H]1C#N)C(=O)Nc1ccccc12)N(C)C(=O)c1ccc(-c2ccccc2)cc1 [Example 277],100 to 1000 nM
14,CC(C)C[C@@H](C(=O)N1C[C@]2(C[C@H]1C#N)C(=O)Nc1ccccc12)N(C)C(=O)c1cccc(-c2ccccc2C#N)c1 [Example 278],< 100 nM
15,CC(C)C[C@@H](C(=O)N1C[C@]2(C[C@H]1C#N)C(=O)Nc1ccccc12)N(C)C(=O)c1cccc(-c2cccc(C#N)c2)c1 [Example 279],100 to 1000 nM
16,CC(C)C[C@@H](C(=O)N1C[C@]2(C[C@H]1C#N)C(=O)Nc1ccccc12)N(C)C(=O)c1nc2ccccc2n1C [Example 282],100 to 1000 nM
17,CC(C)C[C@@H](C(=O)N1C[C@]2(C[C@H]1C#N)C(=O)Nc1ccccc12)N(C)C(=O)c1cn(-c2ccc(F)cc2)nn1 [Example 283],< 100 nM
18,CC(C)C[C@@H](C(=O)N1C[C@]2(C[C@H]1C#N)C(=O)Nc1ccccc12)N(C)C(=O)c1cn(-c2ccc(Cl)cc2)nn1 [Example 284],< 100 nM
19,CC(C)C[C@@H](C(=O)N1C[C@]2(C[C@H]1C#N)C(=O)Nc1ccccc12)N(C)C(=O)c1ccc2cccnc2c1O [Example 285],100 to 1000 nM
20,CC(C)C[C@@H](C(=O)N1C[C@]2(C[C@H]1C#N)C(=O)Nc1ccccc12)N(C)C(=O)c1cn(-c2cccc(Cl)c2)nn1 [Example 286],< 100 nM

row,Structure (SMILES),IC50
1,CC(C)C[C@@H](C(=O)N1C[C@]2(C[C@H]1C#N)C(=O)Nc1ccccc12)N(C)C(=O)c1n[nH]c(-c2ccccc2)n1 [Example 288],100 to 1000 nM
2,CC(C)C[C@@H](C(=O)N1C[C@]2(C[C@H]1C#N)C(=O)Nc1ccccc12)N(C)C(=O)C[C@@H](Cc1cc(F)c(F)cc1F)NC(=O)OC(C)(C)C [Example 289],< 100 nM
3,CC(C)C[C@@H](C(=O)N1C[C@]2(C[C@H]1C#N)C(=O)Nc1ccccc12)N(C)C(=O)c1ccc2c(F)cc(F)cc2n1 [Example 290],100 to 1000 nM
4,CC(C)C[C@@H](C(=O)N1C[C@]2(C[C@H]1C#N)C(=O)Nc1ccccc12)N(C)C(=O)C[C@H](Cc1cc(F)c(F)cc1F)NC(=O)OC(C)(C)C [Example 291],< 100 nM
5,COc1cc(F)c2cc(C(=O)N(C)[C@@H](CC(C)C)C(=O)N3C[C@]4(C[C@H]3C#N)C(=O)Nc3ccccc34)[nH]c2c1F [Example 292],< 100 nM
6,CC(C)C[C@@H](C(=O)N1C[C@]2(C[C@H]1C#N)C(=O)Nc1ccccc12)N(C)C(=O)c1cccc2ccncc12 [Example 293],< 100 nM
7,CC(C)C[C@@H](C(=O)N1C[C@]2(C[C@H]1C#N)C(=O)Nc1ccccc12)N(C)C(=O)c1ccnc2ccccc12 [Example 294],< 100 nM
8,CC(C)C[C@@H](C(=O)N1C[C@]2(C[C@H]1C#N)C(=O)Nc1ccccc12)N(C)C(=O)c1cncc2ccccc12 [Example 295],< 100 nM
9,CC(C)C[C@@H](C(=O)N1C[C@]2(C[C@H]1C#N)C(=O)Nc1ccccc12)N(C)C(=O)c1cccc2cccnc12 [Example 296],100 to 1000 nM
10,CC(C)C[C@@H](C(=O)N1C[C@]2(C[C@H]1C#N)C(=O)Nc1ccccc12)N(C)C(=O)c1ccc2nccnc2c1 [Example 297],100 to 1000 nM
11,CC(C)C[C@@H](C(=O)N1C[C@]2(C[C@H]1C#N)C(=O)Nc1ccccc12)N(C)C(=O)c1cnc2ccccc2n1 [Example 298],100 to 1000 nM
12,CC(C)C[C@@H](C(=O)N1C[C@]2(C[C@H]1C#N)C(=O)Nc1ccccc12)N(C)C(=O)c1c(F)ccc2ccncc12 [Example 299],< 100 nM
13,CC(C)C[C@@H](C(=O)N1C[C@]2(C[C@H]1C#N)C(=O)Nc1ccccc12)N(C)C(=O)c1cnc2cnccc2c1 [Example 301],< 100 nM
14,CC(C)C[C@@H](C(=O)N1C[C@]2(C[C@H]1C#N)C(=O)Nc1ccccc12)N(C)C(=O)c1cnc2cccnc2c1 [Example 302],100 to 1000 nM
15,CC(C)C[C@@H](C(=O)N1C[C@]2(C[C@H]1C#N)C(=O)Nc1ccccc12)N(C)C(=O)c1ccc2ncccc2n1 [Example 303],< 100 nM
16,CC(C)C[C@@H](C(=O)N1C[C@]2(C[C@H]1C#N)C(=O)Nc1ccccc12)N(C)C(=O)c1cccc2ncc(F)cc12 [Example 304],< 100 nM
17,CC(C)C[C@@H](C(=O)N1C[C@]2(C[C@H]1C#N)C(=O)Nc1ccccc12)N(C)C(=O)c1ccnc2ccc(F)cc12 [Example 305],< 100 nM
18,CC(C)C[C@@H](C(=O)N1C[C@]2(C[C@H]1C#N)C(=O)Nc1ccccc12)N(C)C(=O)c1ccnc2cccc(F)c12 [Example 306],< 100 nM
19,CC(C)C[C@@H](C(=O)N1C[C@]2(C[C@H]1C#N)C(=O)Nc1ccccc12)N(C)C(=O)c1cc(F)c2nn(C)cc2c1 [Example 309],< 100 nM
20,CC(C)C[C@@H](C(=O)N1C[C@]2(C[C@H]1C#N)C(=O)Nc1ccccc12)N(C)C(=O)c1cc(OC2CC2)c2nc(Cl)ccc2c1 [Example 310],< 100 nM

row,Structure (SMILES),IC50
1,CC(C)C[C@@H](C(=O)N1C[C@]2(C[C@H]1C#N)C(=O)Nc1ccccc12)N(C)C(=O)c1cc(F)c2nn(C3CC3)cc2c1 [Example 311],100 to 1000 nM
2,CC(C)C[C@@H](C(=O)N1C[C@]2(C[C@H]1C#N)C(=O)Nc1ccccc12)N(C)C(=O)c1cc(OC2CC2)c2ncccc2c1 [Example 312],< 100 nM
3,CC(C)C[C@@H](C(=O)N1C[C@]2(C[C@H]1C#N)C(=O)Nc1ccccc12)N(C)C(=O)c1cc(OC2CC2)n2nc(C3CC3)c(C(=O)C(F)(F)F)c2c1 [Example 313],100 to 1000 nM
4,CC(C)C[C@@H](C(=O)N1C[C@]2(C[C@H]1C#N)C(=O)Nc1ccccc12)N(C)C(=O)c1cc(F)c2nc(C3CC3)c(C(=O)C(F)(F)F)n2c1 [Example 314],100 to 1000 nM
5,CC(C)C[C@@H](C(=O)N1C[C@]2(C[C@H]1C#N)C(=O)Nc1ccccc12)N(C)C(=O)c1cc(OC2CC2)n2nc(C3CC3)cc2c1 [Example 315],< 100 nM
6,CC(C)C[C@@H](C(=O)N1C[C@]2(C[C@H]1C#N)C(=O)Nc1ccccc12)N(C)C(=O)c1cc(Cl)c2nn(C3CC3)cc2c1 [Example 316],< 100 nM
7,CC(C)C[C@@H](C(=O)N1C[C@]2(C[C@H]1C#N)C(=O)Nc1ccccc12)N(C)C(=O)c1cc(OC2CC2)c2nc(C3CC3)sc2c1 [Example 317],< 100 nM
8,CC(C)C[C@@H](C(=O)N1C[C@]2(C[C@H]1C#N)C(=O)Nc1ccccc12)N(C)C(=O)c1cc(F)c2nc(C3CC3)cn2c1 [Example 318],< 100 nM
9,COc1cc(C(=O)N(C)[C@@H](CC(C)C)C(=O)N2C[C@]3(C[C@H]2C#N)C(=O)Nc2ccccc23)cc2cn(C3(C)CC3)nc12 [Example 319],< 100 nM
10,COc1cc(C(=O)N(C)[C@@H](CC(C)C)C(=O)N2C[C@]3(C[C@H]2C#N)C(=O)Nc2ccccc23)cc2cn(C3CCC3)nc12 [Example 320],< 100 nM
11,Cc1ccc2cc(C(=O)N(C)[C@@H](CC(C)C)C(=O)N3C[C@]4(C[C@H]3C#N)C(=O)Nc3ccccc34)cc(OC3CC3)c2n1 [Example 321],< 100 nM
12,CC(C)C[C@@H](C(=O)N1C[C@]2(C[C@H]1C#N)C(=O)Nc1ccccc12)N(C)C(=O)c1cc(OC(F)(F)F)c2ncccc2c1 [Example 322],< 100 nM
13,Cc1cc2cc(C(=O)N(C)[C@@H](CC(C)C)C(=O)N3C[C@]4(C[C@H]3C#N)C(=O)Nc3ccccc34)cc(OC3CC3)c2nc1C [Example 323],< 100 nM
14,CC(C)C[C@@H](C(=O)N1C[C@]2(C[C@H]1C#N)C(=O)Nc1ccccc12)N(C)C(=O)c1cc(OC2CC2)c2ncc(C3CC3)cc2c1 [Example 324],100 to 1000 nM
15,CC(C)C[C@@H](C(=O)N1C[C@]2(C[C@H]1C#N)C(=O)Nc1ccccc12)N(C)C(=O)c1cc2cccc(F)c2[nH]1 [Example 325],< 100 nM
16,CC(C)C[C@@H](C(=O)N1C[C@]2(C[C@H]1C#N)C(=O)Nc1ccccc12)N(C)C(=O)c1cc2cc(C(F)(F)F)ccc2[nH]1 [Example 326],< 100 nM
17,CC(C)C[C@@H](C(=O)N1C[C@]2(C[C@H]1C#N)C(=O)Nc1ccccc12)N(C)C(=O)c1cc2cc(C#N)ccc2[nH]1 [Example 327],< 100 nM
18,CC(C)C[C@@H](C(=O)N1C[C@]2(C[C@H]1C#N)C(=O)Nc1ccccc12)N(C)C(=O)c1cc2c(Cl)c(Cl)ccc2[nH]1 [Example 328],< 100 nM
